In ChEMBL document CHEMBL1128861 (Bioorg Med Chem Lett, 1995):

Tests used:
[1] = biological target: Adrenergic receptor alpha-1 (Rattus norvegicus) (UniProt P15823+P23944+P43140); assay: Affinity for Alpha-1 adrenergic receptor of rat aorta; assay type: tissue-based
[2] = biological target: Histamine H1 receptor (Cavia porcellus) (UniProt P31389); assay: Affinity for H1 histamine receptor of guinea pig ileum; assay type: tissue-based
[3] = biological target: T1, 5-hydroxytryptamine receptor 2A (Rattus norvegicus, UniProt P14842); assay: Antagonism of 5-HT2A receptor of rat tail artery; assay type: functional, tissue-based; conditions: read-out: pA2 (converted)
[4] = biological target: 5-hydroxytryptamine receptor 2A (Rattus norvegicus) (UniProt P14842); assay: Affinity for 5-HT2A receptor of rat tail artery; assay type: tissue-based
[5] = biological target: Serotonin 3 (5-HT3) receptor (Homo sapiens) (UniProt P46098+A5X5Y0+O95264+Q70Z44+Q8WXA8); assay: Binding affinity against 5-hydroxytryptamine 3 receptor of guinea pig ileum; assay type: tissue-based; conditions: Cavia porcellus, target entry is the homologue from another species
[6] = biological target: Muscarinic acetylcholine receptor M3 (Cavia porcellus) (UniProt Q8VH26); assay: Affinity for ileal muscarinic M3 receptor of guinea pig ileum; assay type: tissue-based
[7] = biological target: T2, Adrenergic receptor alpha-1 (Rattus norvegicus, UniProt P15823+P23944+P43140); assay: Antagonism against Alpha-1 adrenergic receptor of rat aorta; assay type: functional, tissue-based
T2 sequence (P15823 whole entry): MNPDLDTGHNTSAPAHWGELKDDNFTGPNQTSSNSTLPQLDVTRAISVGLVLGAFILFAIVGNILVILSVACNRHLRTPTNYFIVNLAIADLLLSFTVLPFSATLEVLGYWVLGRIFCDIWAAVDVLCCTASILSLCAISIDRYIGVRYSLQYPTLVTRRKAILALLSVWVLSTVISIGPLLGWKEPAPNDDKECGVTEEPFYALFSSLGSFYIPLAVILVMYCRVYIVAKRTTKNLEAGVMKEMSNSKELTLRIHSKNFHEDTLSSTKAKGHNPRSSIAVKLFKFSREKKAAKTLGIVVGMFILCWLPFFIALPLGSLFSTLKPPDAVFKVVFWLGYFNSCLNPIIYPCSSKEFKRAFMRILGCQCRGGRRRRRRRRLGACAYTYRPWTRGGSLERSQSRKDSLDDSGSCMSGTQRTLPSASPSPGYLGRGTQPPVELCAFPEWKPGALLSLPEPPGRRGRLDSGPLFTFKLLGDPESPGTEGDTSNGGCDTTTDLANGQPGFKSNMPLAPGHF
T2 sequence (P23944 whole entry): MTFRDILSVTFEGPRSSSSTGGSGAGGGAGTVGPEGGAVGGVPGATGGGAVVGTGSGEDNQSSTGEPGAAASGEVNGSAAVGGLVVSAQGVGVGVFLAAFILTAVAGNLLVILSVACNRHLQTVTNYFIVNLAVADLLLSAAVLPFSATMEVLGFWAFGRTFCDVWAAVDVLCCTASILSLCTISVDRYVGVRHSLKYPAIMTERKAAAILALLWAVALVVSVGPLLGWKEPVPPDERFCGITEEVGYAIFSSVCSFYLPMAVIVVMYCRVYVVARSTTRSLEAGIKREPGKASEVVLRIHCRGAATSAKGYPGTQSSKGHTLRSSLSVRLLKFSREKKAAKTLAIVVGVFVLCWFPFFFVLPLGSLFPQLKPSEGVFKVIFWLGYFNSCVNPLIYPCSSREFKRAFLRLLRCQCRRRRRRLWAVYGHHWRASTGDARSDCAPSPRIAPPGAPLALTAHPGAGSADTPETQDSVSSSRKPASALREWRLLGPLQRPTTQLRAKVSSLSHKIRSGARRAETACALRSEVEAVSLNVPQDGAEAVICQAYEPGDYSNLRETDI
T2 sequence (P43140 whole entry): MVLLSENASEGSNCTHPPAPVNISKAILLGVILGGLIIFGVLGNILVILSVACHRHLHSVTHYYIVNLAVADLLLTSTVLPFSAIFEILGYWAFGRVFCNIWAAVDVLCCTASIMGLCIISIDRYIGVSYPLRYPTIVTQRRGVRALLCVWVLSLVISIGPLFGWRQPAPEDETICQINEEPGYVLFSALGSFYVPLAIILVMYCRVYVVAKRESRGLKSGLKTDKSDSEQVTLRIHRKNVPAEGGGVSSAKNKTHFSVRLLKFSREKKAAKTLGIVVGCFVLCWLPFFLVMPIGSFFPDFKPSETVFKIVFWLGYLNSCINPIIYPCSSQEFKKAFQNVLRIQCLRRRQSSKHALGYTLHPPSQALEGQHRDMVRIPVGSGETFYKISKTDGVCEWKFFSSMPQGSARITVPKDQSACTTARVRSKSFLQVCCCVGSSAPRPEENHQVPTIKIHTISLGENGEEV

Histamine H1 receptor = Histamine H1 receptor (Cavia porcellus, UniProt P31389); assay: Antagonism against H1 histamine receptor of guinea pig ileum; assay type: functional, tissue-based; conditions: read-out: pA2 (converted)
[8] = biological target: T1, 5-hydroxytryptamine receptor 2A; assay: Binding affinity towards 5-HT2A receptor of rat tail artery; assay type: tissue-based
[9] = biological target: Muscarinic acetylcholine receptor M3 (Cavia porcellus) (UniProt Q8VH26); assay: Binding affinity against ileal muscarinic M3 receptor of guinea pig ileum; assay type: tissue-based
[10] = biological target: 5-hydroxytryptamine receptor 2A (Rattus norvegicus) (UniProt P14842); assay: Binding affinity against 5-HT2A receptor of rat tail artery; assay type: tissue-based

Histamine H1 receptor (Cavia porcellus), sequence (P31389 whole entry): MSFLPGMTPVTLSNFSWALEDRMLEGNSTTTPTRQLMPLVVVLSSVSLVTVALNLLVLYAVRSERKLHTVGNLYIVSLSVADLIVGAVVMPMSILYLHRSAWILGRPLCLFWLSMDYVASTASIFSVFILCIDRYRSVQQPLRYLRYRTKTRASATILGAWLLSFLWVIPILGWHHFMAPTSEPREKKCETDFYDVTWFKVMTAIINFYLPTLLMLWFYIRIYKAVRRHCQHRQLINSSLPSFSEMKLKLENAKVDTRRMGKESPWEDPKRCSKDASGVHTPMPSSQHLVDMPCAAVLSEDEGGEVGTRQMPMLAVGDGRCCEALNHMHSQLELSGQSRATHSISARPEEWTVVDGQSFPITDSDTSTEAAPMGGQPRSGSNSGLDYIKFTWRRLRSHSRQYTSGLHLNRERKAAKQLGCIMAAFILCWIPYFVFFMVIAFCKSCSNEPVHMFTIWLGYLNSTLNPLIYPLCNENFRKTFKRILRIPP
Muscarinic acetylcholine receptor M3 (Cavia porcellus), sequence (Q8VH26 1-587): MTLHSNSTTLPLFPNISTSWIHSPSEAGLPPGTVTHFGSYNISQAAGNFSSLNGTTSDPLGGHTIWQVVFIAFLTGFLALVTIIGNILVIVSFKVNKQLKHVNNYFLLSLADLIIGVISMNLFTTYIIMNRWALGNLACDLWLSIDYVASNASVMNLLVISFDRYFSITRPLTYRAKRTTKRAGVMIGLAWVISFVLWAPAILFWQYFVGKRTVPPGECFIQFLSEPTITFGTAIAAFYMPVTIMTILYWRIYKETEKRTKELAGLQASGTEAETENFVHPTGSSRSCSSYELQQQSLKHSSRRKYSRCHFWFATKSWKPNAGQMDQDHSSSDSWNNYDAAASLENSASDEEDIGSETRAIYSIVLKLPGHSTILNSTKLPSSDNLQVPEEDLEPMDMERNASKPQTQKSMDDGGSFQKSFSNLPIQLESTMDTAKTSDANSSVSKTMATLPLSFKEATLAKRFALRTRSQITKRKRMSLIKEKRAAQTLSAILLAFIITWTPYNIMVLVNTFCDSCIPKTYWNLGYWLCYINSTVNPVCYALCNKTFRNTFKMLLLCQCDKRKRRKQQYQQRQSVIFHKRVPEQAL
T1 sequence (P14842 whole entry): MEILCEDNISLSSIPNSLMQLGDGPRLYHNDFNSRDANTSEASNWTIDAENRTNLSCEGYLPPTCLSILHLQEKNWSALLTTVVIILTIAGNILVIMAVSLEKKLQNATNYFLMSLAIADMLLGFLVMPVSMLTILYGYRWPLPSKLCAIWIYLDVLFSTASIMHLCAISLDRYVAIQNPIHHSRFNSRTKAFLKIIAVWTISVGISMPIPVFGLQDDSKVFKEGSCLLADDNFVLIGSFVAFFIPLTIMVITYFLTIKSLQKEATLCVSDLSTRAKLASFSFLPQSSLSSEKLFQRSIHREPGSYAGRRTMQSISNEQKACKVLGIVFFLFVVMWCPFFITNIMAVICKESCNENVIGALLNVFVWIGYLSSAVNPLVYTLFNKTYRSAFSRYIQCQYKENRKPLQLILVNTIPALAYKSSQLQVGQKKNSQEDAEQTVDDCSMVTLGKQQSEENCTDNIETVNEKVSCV
5-hydroxytryptamine receptor 2A (Rattus norvegicus), sequence (P14842 whole entry): as above
Histamine H1 receptor, sequence (P31389 whole entry): as the sequence (P31389 whole entry) above

Row | SMILES | pKB [1] | pKB [2] | Kb [3] [nM] | pKB [4] | pKB [5] | pKB [6] | also measured
1 | Cn1c2c(c3ccccc31)C(=O)C(CN1CC=C(c3c[nH]c4ccccc34)CC1)CC2 (configuration not stated) | 7.58 | 6.62 | 6.31 |  |  |  | 
2 | Cn1c2c(c3ccccc31)C(=O)C(CNCCc1c[nH]cn1)CC2 (configuration not stated) |  |  |  | 6.75 |  |  | 
3 | CN(CCn1c(=O)[nH]c2ccccc2c1=O)CC1CCc2c(c3ccccc3n2C)C1=O (configuration not stated) | 6.45 | 5.9 |  | 5.5 | < 5.7 | 4.68 | 
4 | Cn1c2c(c3ccccc31)C(=O)C(CNCc1ncc[nH]1)CC2 (configuration not stated) |  |  |  | 6.59 |  |  | 
5 | Cn1c2c(c3ccccc31)C(=O)C(CN1CCC(C(=O)c3ccc(F)cc3)CC1)CC2 (single isomer, unassigned; (+)) [listing 1 of 2 here] | 7.28 | 6.82 |  |  |  |  | 
6 | Cn1c2c(c3ccccc31)C(=O)C(CNc1ncc[nH]1)CC2 (configuration not stated) |  |  |  | 6.73 |  |  | 
7 | Cn1c2c(c3ccccc31)C(=O)C(CN1CCC(=C(c3ccc(F)cc3)c3ccc(F)cc3)CC1)CC2 (configuration not stated) | 5.81 | 7.41 |  | 6.3 |  | 5.7 | pD2 [5]: 6.08
8 | O=C(c1ccc(F)cc1)C1CCN(CCn2c(=O)[nH]c3ccccc3c2=O)CC1 [KETANSERIN] |  |  |  |  |  | 4.18 | pA2 [7]: 8.09; Kb (Histamine H1 receptor): 1.41 nM
9 | COc1ccc2[nH]cc(C3=CCN(CC4CCc5c(c6ccccc6n5C)C4=O)CC3)c2c1 (configuration not stated) | 6.59 | 6.31 |  | 6.09 |  |  | 
10 | O=C(c1ccc(F)cc1)C1CCNCC1 |  |  | 525 |  |  |  | Ki [8]: 398 nM
11 | Cc1nccn1CC1CCc2c(c3ccccc3n2C)C1=O (configuration not stated) | 5.29 | 4.37 |  |  |  |  | pKB [9]: 4.72; pKB [10]: 4.66
12 | Cn1c2c(c3ccccc31)C(=O)C(CN1CC=C(c3c[nH]c4ccc(F)cc34)CC1)CC2 (configuration not stated) | 6.49 | 6.6 |  | 7.22 |  |  | 
13 | Cn1c2c(c3ccccc31)C(=O)C(CN1CCCCC1)CC2 (configuration not stated) | 6.11 | 5.69 |  | 5.98 | < 5.3 | 4.98 | 

The next lines start with results.

Row | pKB [1] | pKB [2] | Kb [3] [nM] | pKB [4] | pKB [5] | pKB [6] | SMILES | also measured
14 | 7.36 | 6.53 | 4.57 |  | < 5.5 | 5.01 | Cn1c2c(c3ccccc31)C(=O)C(CN1CCC(C(=O)c3ccccc3)CC1)CC2 (configuration not stated) | 
15 | 7.8 | 6.74 | 2.51 |  | < 5.5 | 5.55 | Cn1c2c(c3ccccc31)C(=O)C(CN1CCN(c3ccc(F)cc3)CC1)CC2 (configuration not stated) | 
16 | 8.08 | 6.74 |  |  |  |  | Cn1c2c(c3ccccc31)C(=O)C(CN1CCC(C(=O)c3ccc(F)cc3)CC1)CC2 (stereo in doubt; (-)-13) [listing 1 of 2 here] | 
17 |  | 6.19 |  | 7.8 | < 5.2 | 4.72 | Cn1c2c(c3ccccc31)C(=O)C(CN1CCN(c3ccccc3F)CC1)CC2 (configuration not stated) | pA2 [7]: 8.75
18 |  |  | 0.437 |  |  |  | Cn1c2c(c3ccccc31)C(=O)C(CN1CCC(C(=O)c3ccc(F)cc3)CC1)CC2 (stereo in doubt; (-)-13) [listing 2 of 2 here] | 
19 | 7.96 | 6.92 |  |  | < 5.7 | 5.19 | Cn1c2c(c3ccccc31)C(=O)C(CN1CCC(C(=O)c3ccc(F)cc3)CC1)CC2 (racemic) [listing 1 of 2 here] | 
20 |  |  | 0.617 |  |  |  | Cn1c2c(c3ccccc31)C(=O)C(CN1CCC(C(=O)c3ccc(F)cc3)CC1)CC2 (racemic) [listing 2 of 2 here] | 
21 |  |  | 64.6 |  |  |  | Cn1c2c(c3ccccc31)C(=O)C(CN1CCC(C(=O)c3ccc(F)cc3)CC1)CC2 (single isomer, unassigned; (+)) [listing 2 of 2 here] | 
22 | 7.58 | 6.4 |  | 8.43 | < 5.2 | 4.97 | Cn1c2c(c3ccccc31)C(=O)C(CN1CCC(c3ccccc3)CC1)CC2 (configuration not stated) | 
